The values that follow come from US4654349A, “Anti-allergic methods using pyrazolo(1,5-A)pyridines” (Kyorin Pharmaceutical Co., Ltd., priority 1983, dated 1987).

SMILES strings stand for the structures.

The test system of one assay is Cyclooxygenase. As to the kind of experiment: Effect on metabolism of exogenous arachidonic acid in A23187-stimulated guinea pig peritoneal neutrophils: cyclooxygenase product. The class given is cell-based. On the procedure:
(§1) The effect of the compounds of this invention on the metabolism of exogenous arachidonic acid-1-^14 C was determined essentially according to the method of Harvey and Osborne [J. Pharmacol. Methods 9, 147 (1983)] using guinea pig peritoneal neutrophils stimulated with calcium ionophore A23187. With this procedure, 5-hydroxyeicosatetraenoic acid (a 5-lipoxygenase product) and 12-hydroxy-5,8,10-heptadecatrienoic acid (a cyclooxygenase product) were produced by neutrophils as major metabolites, allowing simultaneous evaluation of the drug effect on both pathways of arachidonic acid metabolism.

The next assay relates to SRS-A release. As to the kind of experiment: Inhibitory effect on SRS-A release (chopped lung fragments of sensitized guinea pigs upon antigen challenge, bioassayed on isolated guinea pig ileum). The format is cell-based. Conditions: Cavia porcellus; concentration of test compound required to produce a 50% inhibition of SRS-A release; preincubated with lung fragments prior to antigen challenge. On the procedure:
The inhibitory effect of the compounds of this invention on SRS-A release was determined according to the method of Orange and Moors [J. Immunol., 116, 392 (1976)]. SRS-A released from chopped lung fragments of sensitized guinea pigs upon antigen challenge was bioassayed on isolate guinea pig ileum according to the method of Brocklehurst [J. Physiol., 151, 416 (1960)]. Test compounds were preincubated with lung fragments prior to antigen challenge.

Another assay deals with T1, 5-Lipoxygenase (Cavia porcellus, UniProt A0A286X958).
T1 construct: using guinea pig peritoneal neutrophils stimulated with calcium ionophore A23187; endogenous in cells; host or cells: guinea pig peritoneal neutrophils
T1 sequence (A0A286X958 1-674): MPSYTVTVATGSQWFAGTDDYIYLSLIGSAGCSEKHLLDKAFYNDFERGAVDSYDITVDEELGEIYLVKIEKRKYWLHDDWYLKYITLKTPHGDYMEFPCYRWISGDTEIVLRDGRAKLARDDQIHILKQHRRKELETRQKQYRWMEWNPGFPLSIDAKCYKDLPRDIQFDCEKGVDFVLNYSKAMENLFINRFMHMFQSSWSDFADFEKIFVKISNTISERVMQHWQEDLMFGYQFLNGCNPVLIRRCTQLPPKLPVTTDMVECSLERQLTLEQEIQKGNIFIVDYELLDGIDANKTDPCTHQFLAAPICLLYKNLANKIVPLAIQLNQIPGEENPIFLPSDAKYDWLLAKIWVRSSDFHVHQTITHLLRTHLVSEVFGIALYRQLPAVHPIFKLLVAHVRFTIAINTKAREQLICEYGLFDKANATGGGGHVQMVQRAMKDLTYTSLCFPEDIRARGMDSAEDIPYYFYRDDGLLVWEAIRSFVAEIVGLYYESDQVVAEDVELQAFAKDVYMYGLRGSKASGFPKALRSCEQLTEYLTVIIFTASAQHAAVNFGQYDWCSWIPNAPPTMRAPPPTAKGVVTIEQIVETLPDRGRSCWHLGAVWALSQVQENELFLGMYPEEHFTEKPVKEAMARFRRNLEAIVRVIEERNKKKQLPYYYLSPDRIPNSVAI
Briefly: Effect on metabolism of exogenous arachidonic acid in A23187-stimulated guinea pig peritoneal neutrophils: 5-lipoxygenase product. The format is cell-based. Conditions: read-out: Inhibition percent, 5-Lipoxygenase. On the procedure: as §1

For assay [1] the following is noted: must be insufflated as a powder; cited from earlier work.

Consider `CCC(=O)Oc1cnn2cc(CC)ccc12` [compound 7, 6-Ethyl-3-propionyloxypyrazolo[1,5-a]pridine], for which the “Inhibition percent, Cyclooxygenase” value in the assay on Cyclooxygenase (0.1 μM) is recorded as 0%. For the same molecule, in the assay on Cyclooxygenase (0.3 μM), the “Inhibition percent, Cyclooxygenase” value is 0%. Further, the IC50 in the assay with SRS-A release was 1 µg/mL. Moreover, at 5-Lipoxygenase, the inhibition at 0.1 µM worked out at 62% and the inhibition at 0.3 µM stood at 84%.
`O=C(O)c1cc(=O)c2c(OCC(O)COc3cccc4oc(C(=O)O)cc(=O)c34)cccc2o1` [disodium cromoglycate]: the “oral activity (in words)” value in assay [1] is “orally inactive”.
Regarding `CCc1ccc2c(O)c(C(C)C)nn2c1` [compound 4, 6-Ethyl-3-hydroxy-2-isopropylpyraxolo[1,5-a]pyridine], the IC50 in the assay on SRS-A release was 3.5 µg/mL.
For `Oc1c(-c2ccc(F)cc2)nn2ccccc12` [compound 6, 2-p-Fluorophenyl-3-hydroxypyrazolo[1,5-a]pyridine], the IC50 in the assay on SRS-A release amounted to 2.4 µg/mL.
As for `CC(=O)Oc1c(-c2ccc(F)cc2)nn2ccccc12` [compound 20], in the assay with Cyclooxygenase (1.0 μM), the “Inhibition percent, Cyclooxygenase” value was 0%. Besides, in the assay on SRS-A release, the IC50 is 2.4 µg/mL. For the same molecule, on 5-Lipoxygenase, the inhibition at 1 µM came to 83.7%.
For `CCCc1nn2ccccc2c1OC(C)=O` [compound 10], the “Inhibition percent, Cyclooxygenase” value with Cyclooxygenase (0.1 μM) amounted to 0%. Further, in the assay with Cyclooxygenase (0.3 μM), the “Inhibition percent, Cyclooxygenase” value is listed as 0%. Moreover, in the assay on SRS-A release, the IC50 amounted to 1.7 µg/mL. Moreover, on 5-Lipoxygenase, the inhibition at 0.1 µM is 20.6% and the inhibition at 0.3 µM was 80.2%.
Regarding `CCOC(=O)Oc1c(C(C)C)nn2cc(CC)ccc12` [compound 17, 3-Ethoxycarbonyloxy-6-ethyl-2-isopropylpyrazolo[1,5-a]pyridine], in the assay on SRS-A release, the IC50 stood at 1.5 µg/mL.
Regarding `CCc1ccc2c(O)cnn2c1` [compound 1, 6-Ethyl-3-hydroxypyrazolo[1,5-a]pyridine], in the assay on SRS-A release, the IC50 was found to be 0.55 µg/mL.
For `CC(C)C(=O)Oc1c(C(C)C)nn2ccccc12` [compound 13], the IC50 in the assay with SRS-A release worked out at 0.88 µg/mL.
Consider `Cc1nn2ccccc2c1OC(=O)C(C)C` [compound 8], for which, in the assay with SRS-A release, the IC50 was 1.7 µg/mL.
Same read-out and setting: the value for `CC(C)c1nn2ccccc2c1O` [compound 2] was 1.4 µg/mL.
Consider `CCC(=O)Oc1c(C(C)C)nn2ccccc12` [compound 12], for which the “Inhibition percent, Cyclooxygenase” value in the assay on Cyclooxygenase (0.1 μM) was 0%. Further, in the assay on SRS-A release, the IC50 was 0.52 µg/mL. Also, at 5-Lipoxygenase, the inhibition at 0.1 µM came out at 53.2%.
As for `CCc1ccc2c(OC(=O)C(C)C)c(C(C)C)nn2c1` [compound 15, 6-Ethyl-3-isobutyryloxy-2-isopropylpyrazolo[1,5-a]pyridine], the IC50 in the assay on SRS-A release came to 1.2 µg/mL.
With `CC(C)CC(=O)Oc1c(CC(C)C)nn2ccccc12` [compound 16], the “Inhibition percent, Cyclooxygenase” value with Cyclooxygenase (0.1 μM) and in the assay with Cyclooxygenase (0.3 μM) was 0% each time. For the same molecule, in the assay on SRS-A release, the concentration for half-maximal inhibition (IC50) was 1.9 µg/mL. Further, on 5-Lipoxygenase, the inhibition at 0.1 µM turned out to be 16.9%. Further, the inhibition at 0.3 µM at 5-Lipoxygenase turned out to be 82.1%.
In the case of `CC(C)Cc1nn2ccccc2c1O` [compound 5], in the assay with Cyclooxygenase (0.1 μM), the “Inhibition percent, Cyclooxygenase” value is reported as 0%. Also, the “Inhibition percent, Cyclooxygenase” value with Cyclooxygenase (1.0 μM) is listed as 0%. Moreover, the IC50 in the assay with SRS-A release was 1.8 µg/mL. Moreover, at 5-Lipoxygenase, the inhibition at 0.1 µM came out at 20.3% and the inhibition at 1 µM came out at 86.6%.
In the case of `Cc1cccc2c(O)c(C(C)C)nn12` [compound 3], the IC50 in the assay on SRS-A release came to 0.63 µg/mL.
Turning to `Cc1cccc2c(OC(=O)C(C)C)c(C(C)C)nn12` [compound 14], the IC50 in the assay on SRS-A release came to 0.53 µg/mL.
In the case of `O=C1CCN(c2ccccc2)N1` [phenidone, 1phenyl-3-pyrazolidone, reference compound], the “Inhibition percent, Cyclooxygenase” value was 0% in the assay with Cyclooxygenase (0.3 μM), 0% in the assay with Cyclooxygenase (1.0 μM), 0% with Cyclooxygenase (3.0 μM) and 58.2% in the assay with Cyclooxygenase (30.0 μM). The half-maximal inhibitory concentration (IC50) in the assay with SRS-A release worked out at 6.3 µg/mL. On 5-Lipoxygenase, the inhibition at 0.3 µM was 22%. Also, on 5-Lipoxygenase, the inhibition at 1 µM was 60%. For the same molecule, the inhibition at 3 µM at 5-Lipoxygenase (3.0 μM) amounted to 89%. Also, at 5-Lipoxygenase (30.0 μM), the inhibition at 30 µM was 95.5%.
Consider `CCc1nn2ccccc2c1OC(C)=O` [compound 9], for which, in the assay with Cyclooxygenase (0.1 μM), the “Inhibition percent, Cyclooxygenase” value is recorded as 0%. In the assay with Cyclooxygenase (0.3 μM), the “Inhibition percent, Cyclooxygenase” value was determined as 0%. In addition, the IC50 in the assay on SRS-A release came out at 1 µg/mL. For the same molecule, on 5-Lipoxygenase, the inhibition at 0.1 µM came to 35.1% and the inhibition at 0.3 µM was found to be 61.7%.
As to `CC(=O)Oc1c(C(C)C)nn2ccccc12` [compound 11], the IC50 in the assay on SRS-A release is 0.7 µg/mL.
